The results in this text go back to US6362164B1, “Combination of a somatostatin analogue and a rapamycin” (Novartis AG, priority 1996, dated 2002).

In assay [1] the test system is AR42J cells. Kind of assay: In vitro AR42J cell growth assay (SRB staining, delta OD). It is filed as cell-based, rat. Set-up: Cell Growth (ΔOD): unit not given here. As to conditions: octreotide 1.2 nM, Compound B 12.0 nM, combination 1.2 + 12.0 nM; for Cell Growth (% of CONTROL) Observed: control = 100. For orientation: In SRB staining, fixed cells bind dye roughly in proportion to their protein.

The subject of assay [2] is AR42J (AR4-2J) rat pancreatic tumor cell line. Nature of the assay: In vivo AR42J tumor growth in nude mice. As to conditions: after 4 weeks; s.c. AR42J tumors in female nude mice; Compound B or rapamycin 5 mg/kg p.o., octreotide slow release 30 mg/kg s.c. single inj.; control 4020 (3 week value).
Experimental: Cultures are propagated in DMEM supplemented with 10% fetal calf serum (FCS) at 5% CO2. Cells are grown in the absence of antibiotics or antifungal agents. Female nude mice (nu/nu Balbc-A from Iffa Credo, Lyon, France) weighing 19-22 g, are kept in groups of 5 animals in macrolon cages (type III, 16×22×11 cm). The cages are placed in ventilated cabinets (Iffa Credo) that are maintained at 24±1° C. The animals have free access to drinking water and a pathogen-free rodent diet (Diet A, Kliba, Basel, Switzerland). To initiate tumors from cultured cells, AR42J cells are trypsinized and 10×10^6 tumor cells (in 0.2 ml) are injected subcutaneously (s.c.) into both flanks of nude mice. […] Control animals receive placebo. Animals are treated as indicated below for 3 weeks with single agents or the drug combination. The somatostatin analogue is given as a single injection of a slow release form at 30 mg/kg s.c. The size of the tumors is determined with a caliper. To calculate the tumor volume in ml, the equation “volume (ellipsoid)=length×depth×height×0.52” was used.
After 4 weeks, the following tumor sizes were determined.

Consider octreotide, for which, in assay [1] (DMEM+2.5% FCS, control 664 ± 9), the “Cell Growth (ΔOD)” value worked out at 397 ± 16. Further, the “Cell Growth (% of CONTROL) Observed” value in assay [1] turned out to be 59.8%. With `CO[C@H]1C[C@@H]2CC[C@@H](C)[C@@](O)(O2)C(=O)C(=O)N2CCCC[C@H]2C(=O)O[C@H]([C@H](C)C[C@@H]2CC[C@@H](OCCO)[C@H](OC)C2)CC(=O)[C@H](C)/C=C(\C)[C@@H](O)[C@@H](OC)C(=O)[C@H](C)C[C@H](C)/C=C/C=C/C=C/1C` [Compound B, 40-O-(2-hydroxy)ethyl-rapamycin], the “Tumor Volume” value in assay [2] came out at 3685 mm^3. Also, the “Cell Growth (% of CONTROL) Observed” value in assay [1] is listed as 63.3%.

For the molecule Rapamycin, the “Tumor Volume” value in assay [2] was 2748 mm^3.
